Experiments:
[1] = molecular target: T1, tyrosinase (Mus musculus, UniProt P11344); test: Tyrosinase assay; assay type: biochemical; details: 0.05 wt %; mouse melanoma cell extract; DOPA substrate; 475 nm
T1 construct: Tyrosinase was assayed spectrophotometrically by adding up to 0.1 ml cell extract; endogenous in cells
T1 sequence (P11344 19-533): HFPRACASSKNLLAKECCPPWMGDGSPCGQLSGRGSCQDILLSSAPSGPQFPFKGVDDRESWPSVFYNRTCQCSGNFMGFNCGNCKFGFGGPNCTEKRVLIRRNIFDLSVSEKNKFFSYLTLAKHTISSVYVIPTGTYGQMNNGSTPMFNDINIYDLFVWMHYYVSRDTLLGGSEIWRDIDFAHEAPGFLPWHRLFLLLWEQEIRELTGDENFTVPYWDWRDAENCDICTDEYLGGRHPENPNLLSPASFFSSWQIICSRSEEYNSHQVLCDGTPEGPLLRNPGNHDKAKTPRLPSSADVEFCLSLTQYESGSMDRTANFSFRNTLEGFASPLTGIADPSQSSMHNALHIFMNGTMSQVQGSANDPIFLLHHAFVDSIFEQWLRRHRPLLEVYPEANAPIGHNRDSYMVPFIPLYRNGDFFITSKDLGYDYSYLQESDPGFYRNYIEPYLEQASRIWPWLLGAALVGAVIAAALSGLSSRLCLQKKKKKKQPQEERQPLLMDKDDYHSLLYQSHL
Description: A tyrosinase assay was performed according to the method outlined in Chakraborty et al., 1989, Melanogenic regulatory factors in coated vesicles from melanoma cells, J. Invest. Dermatol. 93: 616–620. Specifically, mouse melanoma cells were dissolved with the addition of 0.1 M sodium phosphate buffer, pH 6.8, containing Triton X-100 (1% vol/vol), at a ratio of 1-5×10^6 cells/ml. After 10 minutes on ice, the extracts were centrifuged at 4° C. (10,000 g, for 10 minutes) and the supernatant fractions were assayed for tyrosinase. Tyrosinase was assayed spectrophotometrically by adding up to 0.1 ml cell extract to 0.2 ml of a solution of freshly prepared DOPA (˜0.5 mg/ml), in a total volume of 0.5 ml of 0.1 M sodium phosphate buffer, pH 6.8. Reactions were carried out at 37° C. in plastic cuvettes, and the appearance of absorption at 475 nm was followed.

[2] = test system: Reconstituted Human Epidermis (keratinocytes and Type IV melanocytes); test: Reconstructed Pigmented Epidermal Tissue Assay; assay type: cell-based; details: 0.1 wt %; treated 14 days; absorbance at 490 nm
Description: A composition containing 0.1 wt % N, N, S (tris) carboxylmethyl cysteamine was tested in a Reconstructed Pigmented Epidermal Tissue Assay. Reconstituted Human Epidermis (tissue) consisting of keratinocytes and Type IV (Fitzpatrick scale) melanocytes (Skin Ethic, France) were grown in maintenance medium obtained from the tissue supplier. This model consists of melanocytes and keratinocytes and the pigmentation of the skin-equivalent is due to melanin. The tissue remained viable through the course of the experimental treatment and actively synthesized and transferred melanin. The skin equivalents were treated for 14 days with the active materials of the present invention and a measure of melanin was obtained by measuring absorbance of the tissue at 490 nm. All studies were conducted in 6-well tissue culture dishes (Falcon), at 37° C. and 5% CO2. All test articles were dissolved in medium. Tissues were fed 1 ml of medium with the active material or medium alone was used as the control. […] After 14 days the tissues were transferred to a 24-well tissue culture dish (Falcon), and pigmentation was assessed using a Packard microplate reader at 490 nm. […] A control baseline reading had been taken on day 2 after the models had equilibrated and used as a baseline tissue pigmentation value. The baseline reading was subtracted from the final readings to eliminate inherent absorbance by the tissue. […]

[3] = molecular target: T2, DOPAchrome tautomerase (Mus musculus, UniProt P29812); test: DOPAchrome tautomerase (DCT) assay; assay type: biochemical; details: 0.05 wt %; cell extract; phenylthiourea 1 mM; 475 nm
T2 construct: DCT was assayed spectrophotometrically by adding up to 0.1 ml cell extract; endogenous in cells
T2 sequence (P29812 24-517): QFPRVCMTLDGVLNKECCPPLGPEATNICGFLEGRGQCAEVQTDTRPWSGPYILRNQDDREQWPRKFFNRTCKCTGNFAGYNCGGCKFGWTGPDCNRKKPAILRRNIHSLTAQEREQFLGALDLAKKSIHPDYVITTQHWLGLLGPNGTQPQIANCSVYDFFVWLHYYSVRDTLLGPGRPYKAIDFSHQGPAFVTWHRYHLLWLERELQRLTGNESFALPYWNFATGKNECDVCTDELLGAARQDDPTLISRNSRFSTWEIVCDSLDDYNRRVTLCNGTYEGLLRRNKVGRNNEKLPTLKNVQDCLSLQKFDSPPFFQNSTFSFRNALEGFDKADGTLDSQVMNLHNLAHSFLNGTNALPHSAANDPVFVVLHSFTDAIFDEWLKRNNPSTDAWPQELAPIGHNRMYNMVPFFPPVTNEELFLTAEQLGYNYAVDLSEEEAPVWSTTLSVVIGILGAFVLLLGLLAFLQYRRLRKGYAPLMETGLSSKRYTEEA
Description: DOPAchrome tautomerase (DCT) activity was assayed according to the method disclosed in Chakraborty et al., 1998, Effect of arbutin on melanogenic proteins in human melanocytes, Pigment Cell Res. 11: 206–212. Specifically, ice-cold DOPA (0.5 mg per ml of 0.1 M sodium phosphate buffer, pH 6.8) was mixed with Ag2O (30 mg Ag2O: 1 mg DOPA) for about 1 minute and filtered through a 0.22 μm Millipore filter. DCT was assayed spectrophotometrically by adding up to 0.1 ml cell extract to 0.5 ml of a solution of freshly prepared DOPAchrome (˜0.5 mg/ml). Reactions were carried out at room temperature in plastic cuvettes, and the disappearance of absorption at 475 nm was followed. Phenylthiourea (1 mM) was added to the reaction mixture, because the presence of tyrosinase in the cell extract can interfere with the assay. The percentage conversion of DOPAchrome was calculated per mg of protein extract and normalized against the control.

[4] = test system: DHICA polymerase; test: DHICA polymerase assay; assay type: biochemical; details: 0.05 wt %; wheat germ agglutinin eluate; 4 hours; 400 nm
Description: A DHICA polymerase assay was performed according to the method disclosed in Chakraborty et al., 1996, Polymerization of 5, 6-dihydroxyindole-2-Carboxylic acid to melanin by the pmell7/silver locus protein, Eur. J. Biochem. 236: 180–188. Specifically, the cell extract (0.5 ml, 150–200 μg protein) was passed through a wheat germ agglutinin column (1 ml bed volume) equilibrated with lysis buffer. The bound material was eluted with 0.5 ml 1M N-acetyl glucosamine, which contains crude DHICA polymerization factor and other melanogenic proteins. A reaction mixture of 0.5 ml containing either the enzyme preparation to be measured (20 μg protein from wheat germ agglutinin eluates) or the appropriate buffer blank, DHICA (0.5 mM), and 100 mM sodium phosphate buffer, pH 7.0. Phenylthiourea was also included to inhibit endogenous tyrosinase activity in the preparation.
Spectrophotomeric reading of the absorbance of the reaction mixture was taken at T=0 and T=4 hours time points at 400 nm. […] An increase in absorbance over that seen in blank tubes was defined as specific DHICA polymerization factor activity.

average decrease in tyrosinase conversion as compared to the control [1]: 36% | average decrease in DOPAchrome conversion as compared to the control [3]: 65% | average decrease in DHICA Polymerase conversion compared to the control [4]: 58%
Structure (SMILES): O=C(O)CSCCN(CC(=O)O)CC(=O)O [N, N, S (tris) carboxylmethyl cysteamine]
reduction of reconstructed epidermal tissue pigmentation in comparison to control tissue [2]: about 40%
